# Data published in patent publication US20050038113A1, “Valproic acid and derivatives for the combinatorial therapeutic treatment of human cancers and for the treatment of tumor metastasis and minimal residual disease” (G2M Cancer Drugs AG, priority 2001, published 2005).
# Tests used:
# [1] = system: HCT-116 colon cancer cells; assay: cell counts and propidium iodide cell cycle/apoptosis analysis; format: cell-based, human
# Procedure: For FIG. 14 cells were seeded in 6 well culture dishes at 100000 cells/well. The day after, they were treated with the indicated drugs (5-FU: 2 μM 5-Fluoruracile; AD: 20 ng/ml adriamycin; IT: 3 μM irinothecan), and then cultured for further 48 hours. Cells were counted at 24 h and 48 h after treatment. All of the assays have been performed in triplicate.
# For FIG. 15 cells were seeded in 6 well culture dishes at 100000 cells/well. […] (A), results of triplicate counts of viable cells. (B), cells were stained with propidium iodide after permeabilization and fixation. Results of a cell cycle analysis are presented as percentage (%) of cells in G1, S, G2+M, and sub-G1 (apoptotic cells): all of the assays have been performed in triplicate.
# (A), results of triplicate counts of viable cells. (B), cells were stained with propidium iodide after permeabilization and fixation. Results of a cell cycle analysis are presented as percentage (%) of apoptotic cells: all of the assays have been performed in triplicate.
# For FIG. 17 cells were seeded in 10 cm culture dishes (1 million cells/dish). […] The day after, they were treated with the following drugs: 5-FU (panel A), AD (B), or IT (C), at the concentrations as indicated for FIG. 14. Cells were analyzed at the day of treatment, 24 h, and 48 h following treatment. Upper panels, results of triplicate counts of viable cells. Lower panels, cells were stained with propidium iodide after permeabilization and fixation. Results of a cell cycle analysis are presented as percentage (%) of apoptotic cells: all of the assays have been performed in triplicate.
# [2] = system: MDA-MB468 breast carcinoma cells; assay: MTT cell viability assay; format: cell-based, Human
# Procedure: (§1) Human MDA-MB468, MDA-MB453 and SKBR3 breast carcinoma cells and A431 squamous cell carcinoma cells were maintained in Dulbecco's modified Eagle's medium (DMEM, BioWhittaker, Verviers, Belgium) supplemented with 10% heat inactivated fetal bovine serum (FBS), 2 mM L-glutamine, 100 units/ml penicillin, and 100 μg/ml streptomycin.
# (§2) Tumor cells were seeded in 96 well plates at a density of 1×10^4 cells/well in normal growth medium. […] Control cells were grown in the absence of valproic acid or antibodies. 10 μl of 10 mg/ml 3-(4,5-dimethylthiazole-2-yl)-2,5 diphenyltetrazolium bromide (MTT) (Sigma, Deisenhofen, Germany) in PBS were added to each well and the cells were incubated for another 3 h. Cells were lysed by the addition of 90 μl of lysis buffer (20% SDS in 50% dimethyl formamide, pH 4.7). After solubilization of the formazan product, the absorption at 590 nm was determined in a microplate reader (Dynatech, Denkendorf, Germany) and the relative amount of viable cells in comparison to cells cultured without the addition of valproic acid or antibodies was calculated.
# [3] = system: MDA-MB453 breast carcinoma cells; assay: MTT cell viability assay; format: cell-based, Human; conditions: 70 h
# Procedure: as §1, §2
# [4] = used as an antiepileptic drug during pregnancy; cited from earlier work
# [5] = system: MT450 breast cancer cells; assay: MT450 rat breast cancer model, subcutaneous tumor growth and lung metastasis; format: in vivo
# Procedure: MT450 cells were grown in DMEM/W10% FCS medium and tested for absence of mycoplasms just prior to injection. Cells were washed twice in PBS and suspended to a density of 5×10^6 cells per ml of PBS. 5×10^5 cells in 0.1 ml of PBS were injected into each rat. […] Rats were left to grow primary tumors for 21 days. […] The solution was sterile filtered. The compound was applied by i.p. injection. […] Two doses per day were applied. Control animals received equal amounts of a sterile isotonic sodium chloride solution.
# The experiment was terminated when tumor size in one of the rats of the control group had reached the legal limit of 50 mm. Necropsy at that time was performed on all rats of the experiment to assess lung metastasis. […] Metastasis was also found in 7 out of 8 VPA-treated rats. However, size and number of metastases were much smaller compared to NaCl-treated rats. A dose finding experiment had shown that the chosen dosage protocol lead to high initial serum levels (e.g. 3.6 mM at 1 hour after i.p. injection) which rapidly dropped (e.g. 0.25 mM at 4 hours after i.p. injection) below those levels which are maintained during therapy of epilepsy in human.
smiles,measurement,setting,value
"CCCC(CCC)C(=O)O [VPA, 2-propylpentanoic acid]",cell growth,"[1]; 5-FU 2 μM in combination with VPA 1 mM, 72 hours",strong synergistic reduction in cell growth
same,apoptosis,"[1]; 5-FU 2 μM in combination with VPA 1 mM, 72 hours, vs 5-FU alone",much higher levels of apoptosis
same,apoptosis,"[1]; VPA 1 mM pre-treatment three days, then VPA+AD (20 ng/ml) up to 48 hours",dramatic synergistic enhancement of apoptosis
same,apoptosis,"[1]; VPA 1 mM pre-treatment three days, then VPA+FU (2 μM) up to 48 hours",dramatic synergistic enhancement of apoptosis
same,apoptosis,"[1]; VPA 1 mM pre-treatment three days, then VPA+IT (3 μM) up to 48 hours",dramatic synergistic enhancement of apoptosis
same,apoptosis,"[1]; VPA alone, up to one week",did not induce apoptosis
same,cell number,"[1]; VPA alone, up to one week",only minimally affected cell number
same,"cell viability, combination treatment","[2]; 3 mM VPA + 2 μg/ml c225, 70 h",synergistic reduction of cell viability
same,cell viability,"[2]; single reagent, 70 h, valproic acid 3 mM, c225 2 μg/ml",inhibit the viability
same,"cell viability, combination treatment",[3]; 3 mM VPA + 2 μg/ml Herceptin,synergistic reduction of cell viability
same,cell viability,"[3]; single reagent, valproic acid 3 mM, Herceptin 2 μg/ml",inhibit the viability
same,birth defects (neural tube closure defects and other malformations) in born children,[4],a few percent
same,size and number of metastases compared to NaCl-treated rats,"[5]; 1.25 mmol VPA per kg BW i.p., two doses per day",much smaller
same,growth of the primary tumors (tumor volume),"[5]; 1.25 mmol VPA per kg BW i.p., two doses per day, vs sodium chloride solution",delays tumor expansion
same,rats with lung metastasis at necropsy,"[5]; VPA-treated rats, 1.25 mmol/kg i.p. twice daily, all rats of the control group showed metastasis",7 out of 8
